# Laboratory results published in patent US8138158B2, “Compositions and methods for therapy for diseases characterized by defective chloride transport” (Children's Hospital & Research Center at Oakland, priority 1997, dated 2012).
# Columns and labels:
# Format in all cases: cell-based, human
# Calu-3 monolayers [1] = assay: Transepithelial chloride currents in forskolin-prestimulated Calu-3 monolayers; details: prestimulated with 10 μM forskolin
# Method: FIGS. 13A-13C illustrate the effect of additional representative flavonoids and isoflavonoids on chloride current in epithelial cells. FIG. 13A is a graph showing the stimulation of transepithelial chloride currents by reservatrol (100 μM), flavanone (100 μM), flavone (200 μM), apigenin (20 μM), apigenin 7-O-neohesperidoside (30 μM), kaempferol (20 μM), fisetin (100 μM), quercetin (30 μM), rutin (30 μM), genistein (30 μM), daidzein (50 μM), biochanin A (100 μM) and prunetin (100 μM) in Calu-3 monolayers. Experiments were performed in the presence of 10 μM forskolin. Stimulated currents are plotted relative to forskolin stimulated increase (forskolin stimulated currents are 100%). FIG. 13B is a recording showing the effect of 7,4′-dihydroxyflavone on chloride current in unstimulated tissue. […] Increasing concentrations of 7,4′-dihydroxyflavone (as indicated in μM) were added to mucosal side and dose-dependently stimulated chloride currents. Currents were recorded with a serosal-to-mucosal chloride gradient at 0 mV and pulses were obtained at 2 mV. FIG. 13C is a recording illustrating the effect of trimethoxy-apigenin. […] Increasing concentrations of trimethoxy-apigenin (as indicated in μM) were added to mucosal side and dose-dependently stimulated chloride currents. Experiment was performed on unstimulated tissue. Currents were recorded with a serosal-to-mucosal chloride gradient at 0 mV and pulses were obtained at 2 mV.
# Airway epithelial cells were prestimulated with 10 μM forskolin. The percent increase in chloride current was then determined following treatment with a series of polyphenolic compounds. FIG. 13A summarizes the stimulatory effect of these compounds.
# Calu-3 monolayers [2] = assay: Transepithelial short-circuit current (Isc) across unstimulated Calu-3 monolayers; details: for transepithelial chloride currents in unstimulated tissue: compound added to mucosal (or serosal) perfusion, L-ascorbic acid 100 μM
# Method: Currents were recorded with a serosal-to-mucosal chloride gradient at 0 mV and pulses were obtained at 2 mV.
# Ascorbic acid (100 μM) was added as indicated. For comparison, ascorbic acid-stimulated chloride current was subsequently stimulated by the cAMP elevating agonist forskolin (20 μM, serosal). The CFTR activator genistein (20 mM) was then added to the mucosal perfusion as indicated. […] Currents were recorded with a serosal-to-mucosal chloride gradient at 0 mV and pulses were obtained at 2 mV.
# 100 μM ascorbic acid and forskolin (fsk, 20 μM, serosal) were added as indicated. The CFTR activator kaempferol (20 μM) was subsequently added, as indicated. […] Currents were recorded with a serosal-to-mucosal chloride gradient at 0 mV and pulses were obtained at 2 mV.
# This experiment was performed using unstimulated tissue.
# Kinetic analysis is depicted on the right panel and estimated half maximal stimulatory dose was 11.7 μM. […]
# For comparison, ascorbic acid-stimulated chloride currents were stimulated by the cAMP elevating agonist forskolin (20 μM, serosal).
# Stimulated C1 currents returned to baseline after 5-15 min.
# Calu-3 airway epithelia = assay: Short-circuit current (transepithelial Cl secretion) across Calu-3 airway epithelia, Examples 12-13
# Method: (§1) Short-circuit current measurement. Calu-3 or CF15 cells were grown as monolayers, mounted in Ussing chambers and short-circuit current (ISC) was recorded as described (Illek, B. & Fischer, H. (1998) Am. J. Physiol. 275, L902-L910). At 20-50 second intervals, transepithelial voltage was clamped from zero to 2 mV and the transepithelial resistance (Rte) was calculated. A serosa-to-mucosa-directed Cl gradient was applied. Serosal Ussing chamber solution contained (in mM): 120 NaCl, 20 NaHCO3, 5 KHCO3, 1.2 NaH2PO4, 5.6 glucose, 2.5 CaCl2, 1.2 MgCl2. In mucosal Ussing chamber solutions, all Cl salts were exchanged for gluconate salts.
# Vitamin C activation of CFTR-mediated Cl secretion was studied in Calu-3 cells grown as epithelial monolayers (FIG. 21A). Exposure of the apical membrane to maximal concentrations of L-ascorbic acid stimulated transepithelial Cl currents (ISC) in a sustained fashion to 96±11 μA/cm^2 (n=22). Subsequent addition of forskolin further increased ISC to 141±33 μA/cm^2 (n=9, p=0.029). On average, Cl secretion was stimulated by ascorbate to 68% of the currents elicited by forskolin. The Cl channel blocker diphenylcarboxylate (DPC, 4 mM) was added as a measure for the transcellular Cl current decreasing ISC to 30±4 μA/cm^2. When Cl secretion was first stimulated with forskolin (to 106±23 μA/cm^2, n=4) ascorbate had no significant effect on Ise (at 100 μM: ΔICl=−1.5±3.5 μA/cm^2, n=4, not different from zero, one-sample t test). Half-maximal stimulatory constant averaged 36.5±2.9 μm as determined from transepithelial dose-response experiments.
# Furthermore, the response to ascorbate in Na-containing medium was blunted in the presence of phloretin, a known inhibitor of the sodium-dependent vitamin C transporters SVCT1 and SVCT2 (Tsukaguchi, H., Tokui, T., Mackenzie, B., Berger, U. V., Chen, X. Z., Wang, Y., Brubaker, R. F. & Hediger, M. A. (1999) Nature 399, 70-75). […] Molecular expression of SVCT1 and SVCT2 transcripts in Calu-3 cells was verified using RT-PCR and DNA sequencing analysis. For comparison, human ciliated tracheal epithelial cultures (hTE) and a nasal cystic fibrosis airway cell line (CF15) were included. […] The recombinantly expressed SVCT2-EGFP fusion protein was targeted exclusively to the apical membrane pole of CF15 epithelia.
# [3] = tested on: wildtype CFTR-corrected CF15 monolayers; assay: Short-circuit current across wildtype CFTR-corrected CF15 monolayers; details: forskolin added on ascorbate-stimulated current
# Method: Human airway cell culture. The human submucosal serous gland-like cell line Calu-3, the CF nasal epithelial cell line homozygous for ΔF508 CFTR (CF15) and human tracheal primary cultures (hTE) were cultured as described (Jefferson, D. M., Valentich, J. D., Marini, F. C., Grubman, S. A., Iannuzzi, M. C., Dorkin, H. L., Li, M., Klinger, K. W. & Welsh, M. J. (1990) Am. J. Physiol. 259, L496-L505. Sachs, L. A., Finkbeiner, W. E. & Widdicombe, J. H. (2003) In Vitro Cell Dev. Biol. Anim. 39, 56-62.). Wildtype CFTR-corrected CF15 cells were generated via adenovirus-mediated gene transfer. Growth media were nominally free of ascorbic acid (<10 μm, University Pathology Inc., Salt Lake City, Utah). For transepithelial measurements cells were grown on permeable filter inserts and used after 3 to 10 days.
# as §1
# The CF15 cell line was used to determine whether ascorbate-stimulated Cl currents were solely mediated by the CFTR Cl conductance. The CF15 cell line is characterized by the absence of functional CFTR in the apical plasma membrane but the presence of other non-CFTR Cl conductances (Jefferson, D. M., Valentich, J. D., Marini, F. C., Grubman, S. A., Iannuzzi, M. C., Dorkin, H. L., Li, M., Klinger, K. W. & Welsh, M. J. (1990) Am. J. Physiol. 259, L496-L505). A concentration of L-ascorbic acid that lay within the upper plateau of the dose response curve (500 μm) was applied and ascorbate-stimulated Cl currents in CF15 vs. wildtype CFTR-corrected CF15 monolayers was compared (FIG. 23A). […] The defective response to L-ascorbic acid was reversed in wildtype CFTR-corrected CF15 epithelia such that ISC responded promptly to L-ascorbic acid (ΔISC=7.5±0.5 μA/cm^2, n=6). The ascorbate-stimulated current was further activated by the cAMP agonist forskolin and total stimulated ISC averaged 12.1±1.1 μA/cm^2 (FIG. 4B). The ascorbate-stimulated Cl current reached 60±15% of the forskolin-stimulated current in CFTR-corrected CF15 monolayers, which was close to the corresponding findings in Calu-3 monolayers (68%, see FIG. 21A). The absence of ascorbate-stimulated Cl currents in CF15 monolayers supports the notion that non-CFTR Cl conductances were not activated by L-ascorbic acid.
# In this example, chloride currents stimulated by L-ascorbate or D-ascorbate were measured in CF15 versus. wildtype CFTR-corrected CF15 monolayers. A concentration of L-ascorbate (1 mM) or D-isoascorbate (300 μm) that lay within the upper plateau of the dose-response curve was applied to cells and the resulting chloride currents stimulated in CF15 versus wildtype CFTR-corrected CF15 monolayers were measured (FIG. 25 A-H). All experiments were performed in the presence of the sodium channel blocker amiloride. […]
# [4] = dehydroascorbic acid 10, 100 or 300 μM
molecule,measurement,setting,value
COc1cc(O)c2c(=O)c(-c3ccc(O)cc3)coc2c1 [prunetin],chloride currents further stimulated to (forskolin stimulated currents are 100%),Calu-3 monolayers [1]; compound at 100 μM,161%
C[C@@H]1O[C@@H](O[C@H]2[C@H](Oc3cc(O)c4c(=O)cc(-c5ccc(O)cc5)oc4c3)O[C@H](CO)[C@@H](O)[C@@H]2O)[C@H](O)[C@H](O)[C@H]1O [apigenin 7-O-neohesperidoside],chloride currents further stimulated to (forskolin stimulated currents are 100%),Calu-3 monolayers [1]; compound at 30 μM,155%
O=c1c(-c2ccc(O)cc2)coc2cc(O)ccc12 [daidzein],chloride currents further stimulated to (forskolin stimulated currents are 100%),Calu-3 monolayers [1]; compound at 50 μM,162%
O=C1CC(c2ccccc2)Oc2ccccc21 (stereo not drawn) [flavanone],chloride currents further stimulated to (forskolin stimulated currents are 100%),Calu-3 monolayers [1]; compound at 100 μM,140%
C[C@@H]1O[C@@H](OC[C@H]2O[C@@H](Oc3c(-c4ccc(O)c(O)c4)oc4cc(O)cc(O)c4c3=O)[C@H](O)[C@@H](O)[C@@H]2O)[C@H](O)[C@H](O)[C@H]1O [rutin],chloride currents further stimulated to (forskolin stimulated currents are 100%),Calu-3 monolayers [1]; compound at 30 μM,149%
"Oc1ccc(/C=C/c2cc(O)cc(O)c2)cc1 [reservatrol, trans-3,5,4′-trihydroxystilbene]",chloride currents further stimulated to (forskolin stimulated currents are 100%),Calu-3 monolayers [1]; compound at 100 μM,135%
same,transepithelial chloride currents in unstimulated tissue,Calu-3 monolayers [2]; [4],dose-dependently stimulated transepithelial chloride currents
fisetin,chloride currents further stimulated to (forskolin stimulated currents are 100%),Calu-3 monolayers [1]; compound at 100 μM,108%
"O=C1O[C@H](C(O)CO)C(=O)C1=O (stereo partly drawn) [dehydroascorbic acid, L-threo-2,3-Hexodiulosonic acid γ-lactone]",transepithelial chloride currents in unstimulated tissue,Calu-3 monolayers [2]; [4],effectively stimulated transepithelial chloride currents
same,stimulated Cl currents returned to baseline after,Calu-3 monolayers [2]; [4],5 to 15 min
COc1ccc(-c2cc(=O)c3c(OC)cc(OC)cc3o2)cc1 [trimethoxy-apigenin],transepithelial chloride currents in unstimulated tissue,Calu-3 monolayers [2]; [4],dose-dependently stimulated transepithelial C1 currents
same,EC50,"Calu-3 monolayers [2]; unstimulated tissue, mucosal addition, kinetic analysis, read-out: estimated half maximal stimulatory dose",11.7 µM
"O=C(CCc1ccc(O)cc1)c1c(O)cc(O)cc1O [phloretin, reference compound]",response to ascorbate in presence of SVCT inhibitor,"Calu-3 airway epithelia; Na-containing medium, pre-treatment with 200 μM phloretin",blunted
"O=c1cc(-c2ccc(O)cc2)oc2cc(O)ccc12 [7,4′-Dihydroxyflavone]",transepithelial chloride currents in unstimulated tissue,Calu-3 monolayers [2]; [4],dose-dependently stimulated transepithelial C1 currents
"C=C[C@@]1(C)CC(=O)[C@]2(O)[C@@]3(C)[C@@H](O)CCC(C)(C)[C@@H]3[C@H](O)[C@H](OC(C)=O)[C@@]2(C)O1 [forskolin, reference compound]",total stimulated ISC,[3],12.1±1.1 μA/cm^2
same,Cl secretion first stimulated with forskolin to,"Calu-3 airway epithelia; forskolin first, n=4",106±23 μA/cm^2
same,ISC further increased to,"Calu-3 airway epithelia; subsequent addition of forskolin after L-ascorbic acid, n=9",141±33 μA/cm^2
O=c1cc(-c2ccccc2)oc2ccccc12 [flavone],chloride currents further stimulated to (forskolin stimulated currents are 100%),Calu-3 monolayers [1]; compound at 200 μM,128%
